{"source": "patent US12029715B2", "about": "“Precursor compounds for providing retinoids of the vitamin A5 pathway and uses thereof” (UNIVERSITY OF DEBRECEN, priority 2015, dated 2024)", "key": {"hRXRα LBD [1]": {"target": "T1, hRXRα LBD (Homo sapiens, UniProt P19793)", "T1 sequence (P19793 223-462)": "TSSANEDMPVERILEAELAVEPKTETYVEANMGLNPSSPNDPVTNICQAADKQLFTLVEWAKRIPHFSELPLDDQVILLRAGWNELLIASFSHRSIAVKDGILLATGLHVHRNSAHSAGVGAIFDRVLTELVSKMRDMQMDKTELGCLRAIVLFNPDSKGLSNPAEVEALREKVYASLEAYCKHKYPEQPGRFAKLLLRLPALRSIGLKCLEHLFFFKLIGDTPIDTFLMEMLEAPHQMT", "experiment": "Fluorescence quenching assay, binding to RXRα LBD", "quoted_text": "Quenching of tryptophan fluorescence was monitored at 10° C. using 5 nm of excitation and 5 nm of emission slit-width."}, "[2]": {"test_system": "oligodendrocytes cell line 158N", "experiment": "Metabolic conversion in mouse oligodendrocytes cell culture (LC-MS)", "assay_type": "in vitro ADME", "conditions": "for 9CDHRA levels in cells after treatment: 10^−5M for 18 h; for ATROL levels in cells after treatment: 10^−6M", "method_in_brief": "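Mouse 158N oligodendrocytes at 70–80% confluency were treated with retinoid precursors or esters, with ethanol as vehicle, at 10^−6 M in one variant and from a 10^−2 M ethanol solution in the other. Cells were harvested after 18 h under limited light. Metabolites were analysed by LC-MS.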"}, "[3]": {"experiment": "Mouse oral supplementation, retinoid levels in serum, brain and liver (LC-MS)", "assay_type": "in vivo", "conditions": "mice, per os 40 mg/kg, 11 h after treatment", "quoted_text": "For metabolic analyses ATROL, 9CDHROL, 9CDHBC and control solutions were prepared as described above. Single per os application of the dose of 40 mg/kg of each substance was used to treat mice in the evening and samples were collected 11 h later in the light protected conditions, weighted, frozen in liquid nitrogen and stored at −80° C. until analyses. Serum was prepared and immediately stored in brown vials at −80° C., till further analysis.\nAccordingly, for sample preparation 100 mg of the material (if samples were under 100 mg, water was added up to the used standard weight: 100 mg) or 100 μl serum was diluted with a threefold volume of isopropanol, the tissues were minced by scissors, vortexed for 10 seconds, put in a ultrasonic bath for 5 minutes, shaken for 6 minutes and centrifuged at 13000 rpm in a Heraeus BIOFUGE Fresco at +4° C. […] The dried extracts were resuspended with 30 μl of methanol—MTBE (50-50) and transferred into the autosampler and 10 μl subsequently analysed.\nMouse brain samples were prepared according to the procedure described above. Briefly, after single per os application of the dose of 40 mg/kg of 9CDHROL (or other cited substances) in the evening mice were sacrificed after 11 hours and tissues samples including brain were dissected under light-protection conditions, weighted, frozen in liquid nitrogen and stored at −80° C. until analyses. Serum was prepared and immediately stored in brown vials at −80° C., till further analysis.\nFor mouse supplementation experiments we treated n=6 mice per os with 40 mg/kg bw 9CDHROL and 11 h after the treatment the mice were killed and blood, brain and liver was taken. After centrifugation of the drawn blood, serum was obtained."}, "[4]": {"test_system": "Rbp1−/−, Rxrγ−/− and WT mice", "experiment": "Forced swim test after acute treatment", "assay_type": "in vivo, mouse", "conditions": "for immobility (despair) in the forced swim test: acute i.p. treatment 5-6 h before the test", "procedure": "(§1) The forced swim paradigm was carried out between 1 pm and 4 pm in a 3-litre glass beaker half-filled with water at 22-23° C. (the water depth was 17 cm). All mice were tested only once in this task. To this end, each mouse was lowered gently into the water and the time of immobility was scored during a 6-minute testing period. The mouse was judged immobile when it floated in an upright position and made only small movements to keep its head above the water. After 6 min, the mouse was taken out of the water, left to dry under a red light lamp and returned to its home cage. The immobility scores of each animal were used as an index of despair behavior.\nVehicle treatments consisted of 3% ethanol and 3% DMSO solution in sunflower oil. Treatments were administered by intraperitoneal injections at volume/weight ratio 3 ml/kg between 8-10 am and 5-6 h before the test as previously validated (Wietrzych-Schindler M, 2011).\nas §1, with “paradigm (Dalvi and Lucki, 1999)” for “paradigm”, “2-litre” for “3-litre”"}, "hRARα, β and γ LBDs": {"test_system": "hRARα, β and γ LBDs", "experiment": "ESI-MS in non-denaturing conditions, binding to RAR LBD isotypes", "design": "species or system human", "conditions": "5-fold molar excess of ligand", "procedure": "(§2) cDNAs encoding hRXRα LBD (223-462), hRARα LBD (153-421), hRARBβ LBD (169-414) and hRARγ LBD (178-423) were cloned into pET28b vector to generate N-terminal Histag fusion proteins. Purification was carried out as previously described [Lippert W P et al. 2009, Osz J, et al. 2012], including a metal affinity chromatography and a gel filtration. For details of sample preparation and ESI-MS analyses see below.\ncDNAs encoding hRXRαLBD (223-462), hRARαLBD (153-421), hRARβLBD (169-414) and hRARγ LBD (178-423) were cloned into pET28b vector to generate N-terminal His-tag fusion proteins. Purification was carried out as previously described [Lippert W P et al. 2009, Osz J, et al. 2012], including a metal affinity chromatography and a gel filtration. Prior to ESI-MS analysis, samples were desalted on Zeba Spin desalting columns (Pierce) in 150 mM ammonium acetate (pH 8.0). ESI-MS measurements were performed on an electrospray time-of-flight mass spectrometer (MicrOTOF, Bruker Daltonics). Purity and homogeneity of the proteins were verified by mass spectrometry in denaturing conditions (samples were diluted at 2 pmol/μl in a 1:1 water-acetonitrile mixture (v/v) acidified with 1% formic acid). The mass measurements of the noncovalent complexes were performed in ammonium acetate (200 mM; pH 8.0). […]"}, "hRXRα LBD [5]": {"target": "T1, hRXRα LBD", "experiment": "ESI-MS in non-denaturing conditions, binding to RXR LBD", "design": "cDNAs encoding hRXRα LBD (223-462); His-tag (N); made in house", "conditions": "titration monitored by ESI-MS", "procedure": "as §2\ncDNAs encoding hRXRαLBD (223-462), hRARαLBD (153-421), hRARβLBD (169-414) and hRARγ LBD (178-423) were cloned into pET28b vector to generate N-terminal His-tag fusion proteins. Purification was carried out as previously described [Lippert W P et al. 2009, Osz J, et al. 2012], including a metal affinity chromatography and a gel filtration. Prior to ESI-MS analysis, samples were desalted on Zeba Spin desalting columns (Pierce) in 150 mM ammonium acetate (pH 8.0). ESI-MS measurements were performed on an electrospray time-of-flight mass spectrometer (MicrOTOF, Bruker Daltonics). Purity and homogeneity of the proteins were verified by mass spectrometry in denaturing conditions (samples were diluted at 2 pmol/μl in a 1:1 water-acetonitrile mixture (v/v) acidified with 1% formic acid). The mass measurements of the noncovalent complexes were performed in ammonium acetate (200 mM; pH 8.0). Samples were diluted to 8 pmol/ml in the previous buffer and continuously infused into the ESI ion source at a flow rate of […] through a Harvard syringe pump (Harvard Apparatus model 11). A careful optimization of the interface parameters was performed to obtain the best sensitivity and spectrum quality without affecting the noncovalent complexes stability. In particular, the capillary exit (CE) ranged from 60 to 150 V with a vacuum interface pressure of 2.3 mbar and was set to 80 V. For ligand-interaction analysis, ligands were added to the proteins in a 5-fold molar excess."}}, "note": "Entries after “also recorded” stand apart in the source; their conditions may differ."}
{"compound": "CC(C=CC1=C(C)CCCC1(C)C)=CC=CC(C)CC(=O)O", "note": "(stereo not drawn) [9CDHRA, 9-cis-13,14-dihydroretinoic acid]", "values": [{"measurement": "Kd", "setting": "hRXRα LBD [1]", "value": "90 ± 20", "unit": "nM"}, {"measurement": "9CDHRA levels in cells after treatment", "setting": "[2]", "value": "very strong increase"}, {"measurement": "ATROL levels in cells after treatment", "setting": "[2]", "value": "a low conversion or induced increase"}]}
{"compound": "CC1=C(/C=C/C(C)=C\\C=C\\C(C)CCO)C(C)(C)CCC1", "note": "(stereo not drawn) [9CDHROL, 9-cis-13,14-dihydroretinol]", "values": [{"measurement": "9CDHRA levels in serum, brain and liver after treatment (conversion to 9CDHRA)", "setting": "[3]", "value": "strong increase; also recorded: strongly increased; also recorded: best conversion"}, {"measurement": "9CDHROL levels in serum, brain and liver after treatment", "setting": "[3]", "value": "strongly increased; also recorded: strong and significantly increased levels"}, {"measurement": "9CDHRA levels in cells after treatment", "setting": "[2]", "value": "strong increase"}, {"measurement": "ATROL levels in cells after treatment", "setting": "[2]", "value": "a low conversion or induced increase"}, {"measurement": "9CDHROL levels in cells after treatment", "setting": "[2]; 10^−6 M, 18 hours", "value": "increases; also recorded: excellent/strongly"}, {"measurement": "conversion to 9CDHRA", "setting": "[2]; data not shown", "value": "excellent precursor"}]}
{"compound": "CC1=C(/C=C/C(C)=C\\C=C\\[C@H](C)CC(=O)O)C(C)(C)CCC1", "note": "[(R)-9CDHRA, (9Z,13R)-13,14-Dihydroretinoic Acid]", "values": [{"measurement": "immobility (despair) in the forced swim test", "setting": "[4]; Rbp1−/− mice", "value": "reduce despair behavior; also recorded: reduced in dose dependent manner immobility"}, {"measurement": "dose attaining maximal effect on immobility in the forced swim test", "setting": "[4]; Rbp1−/− mice, acute treatment", "value": 1, "unit": "mg/kg"}, {"measurement": "immobility time in the forced swim test", "setting": "[4]; Rxrγ−/− mice, 2 mg treatment", "value": "120 ± 25", "unit": "s"}, {"measurement": "Kd", "setting": "hRXRα LBD [1]", "value": "90 ± 20", "unit": "nM"}, {"measurement": "binding to RAR LBD isotypes in ESI-MS", "setting": "hRARα, β and γ LBDs", "value": "bind to all RAR LBD isotypes"}, {"measurement": "higher affinity than (S)-9CDHRA for RXR LBD (peak amplitude)", "setting": "hRXRα LBD [5]", "value": "about 65%"}, {"measurement": "lower affinity than 9CRA for RXR LBD (peak amplitude)", "setting": "hRXRα LBD [5]", "value": "approximately 30%"}]}
{"compound": "CC1(C)CCC(C)(C)c2cc(C3(c4ccc(C(=O)O)cc4)OCCO3)ccc21", "note": "[UVI2108, reference compound]", "values": [{"measurement": "immobility (despair) in the forced swim test", "setting": "[4]; Rbp1−/− mice", "value": "reduced significantly immobility time"}]}
